{"source": "patent US5100879A", "about": "“Method of topically cleansing the human body” (K.K. Ueno Seiyaku Oyo Kenkyujo, priority 1987, dated 1992)", "key": {"HTLV-III [1]": {"test_system": "HTLV-III", "assay": "Anti-AIDS virus activity, MT-4 cells infected with HTLV-III, 3 days (Examples 3, 6, 7)", "assay_type": "cell-based", "conditions": "increasing dose", "procedure": "(§1) To MT-4 cells (30×10^4 /ml) cultured in RPMI-1640 medium containing 10% bovine serum, was inoculated HTLV-III, and the suspension was incubated at 37° C. for 1 hour to cause the adsorption of the virus. The cell:virus ratio was 500:1. The cells were then washed, and cultured with or without various doses of the test substances (same as those of Example 1) at 37° C. under 5% CO2 for 3 days, after which cell growth, viability, and percentage of infected cells were recorded. The infected cells were distinguished from the uninfected cells by an indirect immuno-fluorescence method. Thus, the cultured cells were fixed with cold methanol on a slide glass, reacted with antibody to the HTLV-III-specific antigens, and further with the secondary antibody (having a fluororescent label). The results are shown in FIGS. 9-29, wherein, .gradient., .increment. and .quadrature. show the controls without virus, and show the infection experiments with HTLV-III. The cell growth is indicated in number of cells, the viability (%) in number of viable cells ×100/number of total cells, and the infected cell rate (%) in number of fluorescent-positive cells x 100/number of total cells.\nTest substances were assayed for the anti-AIDS virus activity in the same manner as in Example 3 using cell culture. […]\nThe anti-AIDS virus activity of heparin was evaluated in the same manner as in Example 3. […]"}, "HTLV-III [2]": {"test_system": "HTLV-III", "assay": "Anti-AIDS activity, infected cell rate of MT-4 cells infected with HTLV-III at the 6th day (Example 9)", "assay_type": "cell-based", "conditions": "for Infected cell (%): 6th day, control without test substance 100%", "procedure": "as §1\nIn order to examine the correlation between the anti-AIDS virus activity and the molecular structure (especially, molecular weight and S-content or number of sulfate group in this case) of various test substances including those used in Examples 1-7, the anti-AIDS activities were evaluated for the various naturally occurring polysaccharides, polysaccharides having a sulfate group, mucopolysaccharides, mucopolysaccharide sulfate, and mucopolysaccharide polysulfate. Further, similar experiments were carried out with various other sulfates which were synthetically obtained. The experimental procedures employed are identical to that in the preceding experiments. The cultured MT-4 cells were infected with HTLV-III and the inhibitory effects of various test substances on the infected cell rate (number of fluorescent cell×100/ total cell, %) were determined at the 6th day."}, "MT-4 cells": {"test_system": "MT-4 cells", "assay": "Cytotoxicity, MT-4 cells cultured without virus (Examples 4 and 8)", "assay_type": "cell-based, human", "text": "The cell:virus ratio was 500:1. […] The infected cells were distinguished from the uninfected cells by an indirect immuno-fluorescence method. Thus, the cultured cells were fixed with cold methanol on a slide glass, reacted with antibody to the HTLV-III-specific antigens, and further with the secondary antibody (having a fluororescent label). […] The cell growth is indicated in number of cells, the viability (%) in number of viable cells ×100/number of total cells, and the infected cell rate (%) in number of fluorescent-positive cells x 100/number of total cells."}, "mice": {"test_system": "mice", "conditions": "cited from earlier work"}, "[3]": {"test_system": "reverse transciptase of simian sarcoma virus", "conditions": "Cancer Research, 38, 2401 2407; cited from earlier work"}, "[4]": {"test_system": "DNA polymerase of phytohemagglutinin stimulated human lymphocytes", "conditions": "Cancer Research, 38, 2401 2407; cited from earlier work"}, "[5]": {"test_system": "disrupted HTLV-III virions as a crude reverse transcriptase", "assay": "Inhibition of reverse transcriptase activity (HTLV-III), Example 2", "assay_type": "biochemical", "conditions": "FIG. 8"}, "[6]": {"test_system": "Friend leukemia virus (F-MuLV)", "assay": "Anti-Friend leukemia virus activity, XC-plaque assay, Procedure 1", "assay_type": "cell-based", "conditions": "for Number of plaques per dish: control 168", "procedure": "(§2) Anti-FMuLV activity of dextran sulfate (molecular weight: 7000-8000, S-content: 17-20%) was determined by a XC-plaque assay method. BALB3T3 cells were cultured in adhesive form in a 35 mm-dish at 5×10^4 cells/dish (2 ml). After removing the culture medium, a fresh medium with or without indicated concentrations of the test substance (1 ml each) and 0.2 ml of the virus preparation were charged, and the cells were cultured overnight. On the following day, the culture media were replaced with those (2 ml) containing or not containing the above substances, the incubation was continued for three additional days to progress the infection and replication of the virus. After the removal of the medium, the further progression of viral replication was stopped by UV irradiation. To this dish, the suspension of XC-cells (2 ml) was added and cultured for three days and the plaque formation produced by the virus particle induced cell-fusion, was observed."}, "[7]": {"test_system": "Friend leukemia virus (F-MuLV)", "assay": "Anti-Friend leukemia virus activity, XC-plaque assay, Procedure 2", "assay_type": "cell-based", "conditions": "for Number of plaques per dish: control 35", "procedure": "as §2\nProcedure 1 was repeated except that after adsorption of the virus in the medium without DS, the non-adsorbed viruses were removed and the culture was carried out in the medium (2 ml) containing or not containing DS."}}, "note": "Like-named read-outs stand apart in the source and are kept apart here."}
{"substance": "Heparin", "values": [{"measurement": "cell growth (number of cells) and viability of MT-4 cells infected with HTLV-III", "setting": "HTLV-III [1]", "result": "the number of cells and viability were maintained to that of control"}, {"measurement": "infected cell rate (%) of MT-4 cells infected with HTLV-III, in words", "setting": "HTLV-III [1]", "result": "less susceptible to the viral infection"}, {"measurement": "Infected cell (%)", "setting": "HTLV-III [2]; 10 μg/ml", "result": 41, "unit": "%"}, {"measurement": "Infected cell (%)", "setting": "HTLV-III [2]; 100 μg/ml", "result": 1, "unit": "%"}, {"measurement": "anti-AIDS virus activity, in words", "setting": "HTLV-III [2]; Example 9", "result": "particularly strong"}, {"measurement": "cytotoxicity to MT-4 cells, in words", "setting": "MT-4 cells", "result": "little cytotoxicity"}, {"measurement": "acute toxicity (LD50)", "setting": "mice; intravenously", "result": "1,500-2,000 mg/kg"}, {"measurement": "inhibition of reverse transciptase of simian sarcoma virus in vitro", "setting": "[3]", "result": "inhibit"}, {"measurement": "inhibition of DNA polymerase of phytohemagglutinin stimulated human lymphocytes in vitro", "setting": "[4]", "result": "inhibit"}]}
{"substance": "dextran sulfate [Dextran sulfate 7,000-8,000]", "values": [{"measurement": "inhibitory effect against the reverse transcriptase derived from HTLV-III", "setting": "[5]", "result": "has an inhibitory effect"}, {"measurement": "Infected cell (%)", "setting": "HTLV-III [2]; 10 μg/ml", "result": 1, "unit": "%"}, {"measurement": "Infected cell (%)", "setting": "HTLV-III [2]; 100 μg/ml", "result": 0, "unit": "%"}, {"measurement": "Viability", "setting": "MT-4 cells; 1 μg/ml, without virus, 0 μg/ml gives 87", "result": 90, "unit": "%"}, {"measurement": "Inhibition (%)", "setting": "[6]; Procedure 1, 1 μg/ml", "result": 92, "unit": "%"}, {"measurement": "Number of plaques per dish", "setting": "[6]; Procedure 1, 1 μg/ml", "result": 14, "unit": "per dish"}, {"measurement": "Inhibition (%)", "setting": "[6]; Procedure 1, 5 μg/ml", "result": 93, "unit": "%"}, {"measurement": "Number of plaques per dish", "setting": "[6]; Procedure 1, 5 μg/ml", "result": 12, "unit": "per dish"}, {"measurement": "Inhibition (%)", "setting": "[6]; Procedure 1, 10 μg/ml", "result": 93, "unit": "%"}, {"measurement": "Number of plaques per dish", "setting": "[6]; Procedure 1, 10 μg/ml", "result": 11, "unit": "per dish"}, {"measurement": "Inhibition (%)", "setting": "[6]; Procedure 1, 50 μg/ml", "result": 92, "unit": "%"}, {"measurement": "Number of plaques per dish", "setting": "[6]; Procedure 1, 50 μg/ml", "result": 13, "unit": "per dish"}, {"measurement": "Inhibition (%)", "setting": "[6]; Procedure 1, 100 μg/ml", "result": 96, "unit": "%"}, {"measurement": "Number of plaques per dish", "setting": "[6]; Procedure 1, 100 μg/ml", "result": 6, "unit": "per dish"}, {"measurement": "Inhibition (%)", "setting": "[6]; Procedure 1, 1000 μg/ml", "result": 100, "unit": "%"}, {"measurement": "inhibition of the formation of plaque", "setting": "[6]; Procedure 1, concentrations of 1-100 μg/ml", "result": "≥ 90", "unit": "%"}, {"measurement": "Inhibition (%)", "setting": "[7]; Procedure 2, 0.01 μg/ml", "result": 6, "unit": "%"}, {"measurement": "Number of plaques per dish", "setting": "[7]; Procedure 2, 0.01 μg/ml", "result": 33, "unit": "per dish"}, {"measurement": "Inhibition (%)", "setting": "[7]; Procedure 2, 0.1 μg/ml", "result": 45, "unit": "%"}, {"measurement": "Number of plaques per dish", "setting": "[7]; Procedure 2, 0.1 μg/ml", "result": 19, "unit": "per dish"}, {"measurement": "Number of plaques per dish", "setting": "[7]; Procedure 2, 1 μg/ml", "result": 14, "unit": "per dish"}, {"measurement": "Inhibition (%)", "setting": "[7]; Procedure 2, 10 μg/ml", "result": 52, "unit": "%"}, {"measurement": "Number of plaques per dish", "setting": "[7]; Procedure 2, 10 μg/ml", "result": 17, "unit": "per dish"}, {"measurement": "Inhibition (%)", "setting": "[7]; Procedure 2, 100 μg/ml", "result": 54, "unit": "%"}, {"measurement": "Number of plaques per dish", "setting": "[7]; Procedure 2, 100 μg/ml", "result": 16, "unit": "per dish"}, {"measurement": "Number of plaques per dish", "setting": "[7]; Procedure 2, 500 μg/ml", "result": 0, "unit": "per dish"}, {"measurement": "acute toxicity (LD50)", "setting": "mice; intravenously", "result": "4,500 mg/kg"}, {"measurement": "acute toxicity (LD50)", "setting": "mice; orally", "result": "21,000 mg/kg"}]}
